In patent US20120196899A1, “METHODS AND PRODUCTS FOR TREATING INFLAMMATION” (Rock Creek Pharmaceuticals, Inc., priority 2010, published 2012):
“And” between values parts separate entries of the source, which are not always exact repeats. Equal values may be shown once.

What was measured:
[1] = Coagulation parameters (aPTT, PT), day 15; format: in vivo, Sprague-Dawley rats; settings: for ACTIVATED PARTIAL THROMBOPLASTIN TIME: 0.75 mg/kg, group mean; for ACTIVE PARTIAL THROMBOPLASTIN TIME: nicotine 0.75 mg/kg, individual animals, tartrate
From the text: (§1) On day 15, urine was collected on all surviving animals for urinalysis. The animals were euthanized and bled via cardiac puncture. Blood was collected for hematology, clinical chemistry, and coagulation analysis. Tissues were collected, weighed, and stored in 10% neutral-buffered formalin for possible future analysis.
Individual values for the coagulation parameters activated partial thromboplastin (aPTT) and prothrombin times (PT) for each animal are listed in Table 34 (normal ranges, Table 30). These are summarized in terms of descriptive statistics in Table 25.

[2] = Body weights, weight gain and food consumption over 14 days after single i.v. dose; format: in vivo, Sprague-Dawley rats; settings: for Mean food consumption/day / Mean weigth increase by day 14 / day 13 B.W. / day 14 B.W. / B.W. day 1 / B.W. day 2 / B.W. day 3 / B.W. day 4 / B.W. day 5 / B.W. day 6 / B.W. day 7 / B.W. day 8 / B.W. day 9 / B.W. day 10 / B.W. day 11 / B.W. day 12: nicotine 0.75 mg/kg single i.v.; for day 13 B.W. / day 14 B.W. / B.W. day 1 / B.W. day 2 / B.W. day 3 / B.W. day 4 / B.W. day 5 / B.W. day 6 / B.W. day 7 / B.W. day 8 / B.W. day 9 / B.W. day 10 / B.W. day 11 / B.W. day 12 / Average Daily Food Consumption per Rat: tartrate; for B.W. day 1 / B.W. day 2 / B.W. day 3 / B.W. day 4 / B.W. day 5 / B.W. day 6 / B.W. day 7 / B.W. day 8 / B.W. day 9 / B.W. day 10 / B.W. day 11 / B.W. day 12: individual animals; for Average Daily Food Consumption per Rat: nicotine 0.75 mg/kg, per cage (cage 1, 2)
Experimental: Body weight and food consumption was measured daily for 14 days. On day 15, urine was collected on all surviving animals. The animals were euthanized and bled via cardiac puncture, and blood was collected for analysis. Tissues were collected, weighed, evaluated for gross abnormalities, and stored in 10% neutral-buffered formalin.
All animals were observed daily.

Hematology, day 15 = format: in vivo, Sprague-Dawley rats; settings: for EOSINOPHIL / HCT / HGB / LYMPHOCYTE / MCH / MCHC / MCV / MONOCYTE / NEUTROPHIL SEG / PLATELET COUNT / RBC / RE[…] / WBC: 0.75 mg/kg, group mean
From the text: as §1

nAChR α3/β4 = nAChR α3/β4 (Homo sapiens, UniProt P30926+P32297)
Chain of nAChR α3/β4 (P32297 32-505): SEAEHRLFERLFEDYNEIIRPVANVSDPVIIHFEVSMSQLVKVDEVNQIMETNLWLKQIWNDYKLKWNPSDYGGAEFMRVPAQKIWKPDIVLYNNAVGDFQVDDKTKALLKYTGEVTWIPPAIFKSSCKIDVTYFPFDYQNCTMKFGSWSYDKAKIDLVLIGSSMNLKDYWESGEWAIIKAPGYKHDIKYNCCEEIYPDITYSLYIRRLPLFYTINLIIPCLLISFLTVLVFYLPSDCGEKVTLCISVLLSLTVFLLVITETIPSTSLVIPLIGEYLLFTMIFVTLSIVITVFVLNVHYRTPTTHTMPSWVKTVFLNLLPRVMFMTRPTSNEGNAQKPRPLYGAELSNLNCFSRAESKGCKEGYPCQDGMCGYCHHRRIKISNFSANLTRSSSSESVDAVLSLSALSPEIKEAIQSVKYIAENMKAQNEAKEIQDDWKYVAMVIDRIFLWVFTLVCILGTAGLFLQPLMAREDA
Chain of nAChR α3/β4 (P30926 22-498): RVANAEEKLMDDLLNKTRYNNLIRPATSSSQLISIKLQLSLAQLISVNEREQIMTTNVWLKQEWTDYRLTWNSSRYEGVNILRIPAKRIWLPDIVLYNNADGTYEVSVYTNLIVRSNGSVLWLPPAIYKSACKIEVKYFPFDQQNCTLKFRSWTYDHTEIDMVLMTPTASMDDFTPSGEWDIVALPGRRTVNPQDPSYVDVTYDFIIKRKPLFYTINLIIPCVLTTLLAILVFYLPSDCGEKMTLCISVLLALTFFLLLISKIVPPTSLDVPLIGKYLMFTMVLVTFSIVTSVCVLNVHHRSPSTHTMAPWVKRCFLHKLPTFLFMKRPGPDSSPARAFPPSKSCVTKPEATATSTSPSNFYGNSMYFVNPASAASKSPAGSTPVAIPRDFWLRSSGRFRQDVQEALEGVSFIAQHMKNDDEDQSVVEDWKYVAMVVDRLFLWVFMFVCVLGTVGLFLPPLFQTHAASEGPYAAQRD
Experimental: HEK293 or CHO cells were transiently or stably transfected with the appropriate human ion channel cDNAs. Stable transfectants were selected by coexpression with the antibiotic-resistance gene(s) incorporated into the expression plasmid(s). Selection pressure was maintained by including selection antibiotics in the culture medium. HEK293 cells were cultured in Dulbecco's Modified Eagle Medium/Nutrient Mixture F-12 (D-MEM/F-12) supplemented with 10% fetal bovine serum, 100 U/mL penicillin G sodium, 100 g/mL streptomycin sulfate and appropriate selection antibiotics. CHO cells were cultured in Ham's F-12 supplemented with 10% fetal bovine serum, 100 U/mL penicillin G sodium, 100 g/mL streptomycin sulfate and appropriate selection antibiotics.
For FLIPR TETRA™ assay, cells were plated in 384-well black wall, flat clear bottom microtiter plates (Type: BD Biocoat Poly-D-Lysine Multiwell Cell Culture Plate) at 20,000 to 30,000 cells per well (384-well plate). Cells were incubated at 37° C. overnight or until the cells reached a sufficient density in the wells (near confluent monolayer) to use in fluorescence assays. For α4β2 assay, cells were incubated at 27° C. for at least 7 hours before use.
Experiments were performed with either the FLIPR calcium sensitive dye kit (Fluo-8, ABDbioquest, for nAChR α3/β4 and nAChR α7) or FLIPR membrane potential kit (Molecular Devices, for nAChR α4/β2) according to the manufacturer's instructions. Briefly, cells were incubated with 201 dye for 30 min at 37° C. After dye loading period, for the agonist assay, 5 μl of the test, vehicle, or control articles at concentration of 5 times of final concentration were applied to the cells without stimulation. For the positive allosteric modulation (PAM) and antagonist assay, after test article application, the cells were stimulated with either low dose (for PAM) or high dose (for antagonist) of Ach.
The signal elicited in the presence of the positive control agonist and allosteric modulator (10 μM Ach+1 μM epibatidine) was set to 100% and the signal from the agonist control (10 μM Ach) was set to 0%.

nAChR α4/β2 = target: T1, nAChR α4/β2 (Homo sapiens, UniProt P17787+P43681); format: cell-based; settings: 100 μM Ach + 0.3 μM epibatidine; not concentration-dependent, IC50 not determinable
T1 construct: host or cells: HEK293 cells, transient transfection
T1 sequence (P17787 26-502): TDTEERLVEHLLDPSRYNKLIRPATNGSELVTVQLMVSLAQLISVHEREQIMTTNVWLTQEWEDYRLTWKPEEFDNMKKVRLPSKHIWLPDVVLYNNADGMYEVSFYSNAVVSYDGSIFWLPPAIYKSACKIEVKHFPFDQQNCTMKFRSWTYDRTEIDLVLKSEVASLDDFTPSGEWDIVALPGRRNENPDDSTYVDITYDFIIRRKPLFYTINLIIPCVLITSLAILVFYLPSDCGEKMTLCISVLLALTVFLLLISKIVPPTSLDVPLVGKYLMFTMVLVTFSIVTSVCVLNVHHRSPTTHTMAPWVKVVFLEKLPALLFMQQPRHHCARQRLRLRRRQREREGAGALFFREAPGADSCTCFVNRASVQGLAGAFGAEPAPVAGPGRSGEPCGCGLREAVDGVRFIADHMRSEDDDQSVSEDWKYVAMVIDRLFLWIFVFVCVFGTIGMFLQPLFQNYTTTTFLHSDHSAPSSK
T1 sequence (P43681 29-627): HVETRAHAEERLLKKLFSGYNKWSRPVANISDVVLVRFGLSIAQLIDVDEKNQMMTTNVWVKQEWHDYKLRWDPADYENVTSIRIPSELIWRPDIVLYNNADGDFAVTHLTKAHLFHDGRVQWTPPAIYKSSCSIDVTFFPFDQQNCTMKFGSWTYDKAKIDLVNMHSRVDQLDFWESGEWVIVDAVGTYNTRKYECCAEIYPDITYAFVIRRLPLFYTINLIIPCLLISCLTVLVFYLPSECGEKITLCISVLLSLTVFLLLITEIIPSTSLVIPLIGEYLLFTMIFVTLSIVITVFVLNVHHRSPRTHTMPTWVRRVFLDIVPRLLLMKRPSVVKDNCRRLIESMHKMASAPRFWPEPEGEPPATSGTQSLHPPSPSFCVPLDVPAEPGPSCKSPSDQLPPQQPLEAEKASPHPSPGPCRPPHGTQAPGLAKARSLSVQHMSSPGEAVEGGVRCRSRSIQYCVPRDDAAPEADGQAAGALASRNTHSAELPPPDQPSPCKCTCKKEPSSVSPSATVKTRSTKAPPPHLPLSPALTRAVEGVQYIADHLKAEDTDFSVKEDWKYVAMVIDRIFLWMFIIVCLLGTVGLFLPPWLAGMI
Experimental: The following three (3) channels were evaluated: • 1. nAChR α3/β4 (encoded by the human CHRNA3 and CHRNB4 gene and stably expressed in CHO cells); • 2. nAChR α4/β2 (CHRNA4 and CHRNB2 gene and transiently expressed in HEK293 cells); and • 3. nAChR α7 (encoded by the human nicotinic α7 gene coexpressed in CHO cells with the chaperone RIC-3 encoded by the human RIC3 gene).
The ability of each test article to act as an agonist, a positive allosteric modulator or antagonist of three nAChR receptor channels was evaluated in the presence of 0.1 atropine. Both test articles were evaluated for responses on each nAChR channel at eight (8) concentrations: 0.3, 1, 3, 10, 30, 100, 300, and 1000 μM (n=4 for each concentration).
HEK293 or CHO cells were transiently or stably transfected with the appropriate human ion channel cDNAs. Stable transfectants were selected by coexpression with the antibiotic-resistance gene(s) incorporated into the expression plasmid(s). […]
For FLIPR TETRA™ assay, cells were plated in 384-well black wall, flat clear bottom microtiter plates (Type: BD Biocoat Poly-D-Lysine Multiwell Cell Culture Plate) at 20,000 to 30,000 cells per well (384-well plate). Cells were incubated at 37° C. overnight or until the cells reached a sufficient density in the wells (near confluent monolayer) to use in fluorescence assays. […]

nAChR α7 = target: T2, nAChR α7 (Homo sapiens, UniProt P36544); assay: nAChR α7 channel agonist assay (FLIPR, with PNU-120596); format: cell-based; settings: with 10 μM PNU-120596; maximal stimulation not achieved
T2 construct: host or cells: CHO cells
T2 sequence (P36544 23-502): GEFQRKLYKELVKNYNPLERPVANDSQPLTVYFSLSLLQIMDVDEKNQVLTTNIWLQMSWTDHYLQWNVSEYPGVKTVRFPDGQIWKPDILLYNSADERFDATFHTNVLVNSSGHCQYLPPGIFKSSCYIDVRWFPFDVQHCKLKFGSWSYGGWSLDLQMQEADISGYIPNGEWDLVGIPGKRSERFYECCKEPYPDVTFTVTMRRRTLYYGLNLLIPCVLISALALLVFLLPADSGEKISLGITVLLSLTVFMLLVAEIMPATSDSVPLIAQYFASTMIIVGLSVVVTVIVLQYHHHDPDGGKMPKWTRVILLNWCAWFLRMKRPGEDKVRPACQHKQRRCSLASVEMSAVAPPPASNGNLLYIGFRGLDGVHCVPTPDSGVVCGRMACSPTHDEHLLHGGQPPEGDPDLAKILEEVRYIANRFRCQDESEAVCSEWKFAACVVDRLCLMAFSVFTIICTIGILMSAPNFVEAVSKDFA
Experimental: Therefore, the assay of agonist activity for either Ach or for the test articles was conducted in the presence of the positive allosteric modulator.

## CN1CCCC1c1cccnc1.O=C(O)C(O)C(O)C(=O)O (single isomer, unassigned; (-)) [Nicotine, (−) Nicotine hydrogen tartrate, reference compound]
[1]; female
  ACTIVATED PARTIAL THROMBOPLASTIN TIME: 16.9 s
[1]; male
  ACTIVATED PARTIAL THROMBOPLASTIN TIME: 16.3 s
[1]; nicotine 0.75 mg/kg single i.v., male and female, day 15
  aPTT versus vehicle control: aPTT was significantly lower relative to the vehicle control group
[1]; female rats
  ACTIVE PARTIAL THROMBOPLASTIN TIME: 18.7 s and 15 s
[1]; male rats
  ACTIVE PARTIAL THROMBOPLASTIN TIME: 15 s and 16.3 s and 17.6 s and 16.2 s
[2]; Female
  Mean food consumption/day: 20.6 g
  Mean weigth increase by day 14: 40.8 g
[2]; Male
  Mean food consumption/day: 26.4 g
  Mean weigth increase by day 14: 98.5 g
[2]; individual female rats
  day 13 B.W.: 232.6 g and 251.8 g and 227.3 g
  day 14 B.W.: 230.4 g and 249 g and 229 g
[2]; individual male rats
  day 13 B.W.: 330 g and 312.3 g and 292.4 g and 299.4 g
  day 14 B.W.: 339.2 g and 316.1 g and 297.6 g and 305 g
[2]; day 1, female rats
  B.W. day 1: 191.6 g and 206.1 g and 192.8 g
[2]; day 1, male rats
  B.W. day 1: 227 g and 228 g and 223 g and 219 g
[2]; day 2, female rats
  B.W. day 2: 190.5 g and 213.4 g and 195.7 g
[2]; day 2, male rats
  B.W. day 2: 234.9 g and 239.1 g and 229.5 g and 229.1 g
[2]; day 3, female rats
  B.W. day 3: 198 g and 217.1 g and 199.1 g
[2]; day 3, male rats
  B.W. day 3: 243 g and 245.1 g and 241.1 g and 238.4 g
[2]; day 4, female rats
  B.W. day 4: 207.8 g and 223.8 g and 205.6 g
[2]; day 4, male rats
  B.W. day 4: 260.5 g and 263.4 g and 257.6 g and 252.9 g
[2]; day 5, female rats
  B.W. day 5: 212.3 g and 226.3 g and 206.4 g
[2]; day 5, male rats
  B.W. day 5: 272.1 g and 269.1 g and 260.7 g and 258.7 g
[2]; day 6, female rats
  B.W. day 6: 207 g and 228.9 g and 205.5 g
[2]; day 6, male rats
  B.W. day 6: 259 g and 275.4 g and 270 g and 262.8 g
[2]; day 7, female rats
  B.W. day 7: 213 g and 240.1 g and 218.3 g
[2]; day 7, male rats
  B.W. day 7: 279.9 g and 295.8 g and 288 g and 277.8 g
[2]; day 8, female rats
  B.W. day 8: 218 g and 237.4 g and 217.4 g
[2]; day 8, male rats
  B.W. day 8: 284 g and 293.7 g and 285.6 g and 278 g
[2]; day 9, female rats
  B.W. day 9: 219.1 g and 236.4 g and 213.2 g
[2]; day 9, male rats
  B.W. day 9: 274.9 g and 303.5 g and 285.6 g and 274.6 g
[2]; day 10, female rats
  B.W. day 10: 221.8 g and 240.1 g and 220.5 g
[2]; day 10, male rats
  B.W. day 10: 286.1 g and 314.2 g and 301 g and 283.4 g
[2]; day 11, female rats
  B.W. day 11: 222.8 g and 244.5 g and 226 g
[2]; day 11, male rats
  B.W. day 11: 292.2 g and 317.7 g and 300.1 g and 291.5 g
[2]; day 12, female rats
  B.W. day 12: 232.1 g and 248.9 g and 227.7 g
[2]; day 12, male rats
  B.W. day 12: 290.7 g and 329.5 g and 303 g and 287.3 g
[2]; female, day 1
  Average Daily Food Consumption per Rat: 23.7 grams and 14.8 grams
[2]; female, day 2
  Average Daily Food Consumption per Rat: 18.4 grams and 24.9 grams
[2]; female, day 3
  Average Daily Food Consumption per Rat: 22.2 grams and 22.3 grams
[2]; female, day 4
  Average Daily Food Consumption per Rat: 19.4 grams and 15.8 grams
[2]; female, day 5
  Average Daily Food Consumption per Rat: 18.7 grams and 16.2 grams
[2]; female, day 6
  Average Daily Food Consumption per Rat: 20.0 grams and 17.2 grams
[2]; female, day 7
  Average Daily Food Consumption per Rat: 19.4 grams and 21.7 grams
[2]; female, day 8
  Average Daily Food Consumption per Rat: 20.1 grams and 20.6 grams
[2]; female, day 9
  Average Daily Food Consumption per Rat: 24.4 grams and 21.5 grams
[2]; female, day 10
  Average Daily Food Consumption per Rat: 22.6 grams and 20.4 grams
[2]; female, day 11
  Average Daily Food Consumption per Rat: 20.4 grams and 20.3 grams
[2]; female, day 12
  Average Daily Food Consumption per Rat: 22.5 grams and 21.7 grams
[2]; female, day 13
  Average Daily Food Consumption per Rat: 23.7 grams and 21.2 grams
[2]; female, day 14
  Average Daily Food Consumption per Rat: 24.4 grams and 19.6 grams
[2]; males, day 1
  Average Daily Food Consumption per Rat: 20.8 grams and 19.3 grams
[2]; males, day 2
  Average Daily Food Consumption per Rat: 26.2 grams and 23.5 grams
[2]; males, day 3
  Average Daily Food Consumption per Rat: 26.6 grams and 26.2 grams
[2]; males, day 4
  Average Daily Food Consumption per Rat: 26.2 grams and 23.7 grams
[2]; males, day 5
  Average Daily Food Consumption per Rat: 25.1 grams and 21.9 grams
[2]; males, day 6
  Average Daily Food Consumption per Rat: 23.8 grams and 25.9 grams
[2]; males, day 7
  Average Daily Food Consumption per Rat: 26.5 grams and 27.9 grams
[2]; males, day 8
  Average Daily Food Consumption per Rat: 24.0 grams and 28.2 grams
[2]; males, day 9
  Average Daily Food Consumption per Rat: 27.3 grams and 26.1 grams
[2]; males, day 10
  Average Daily Food Consumption per Rat: 29.6 grams and 30.9 grams
[2]; males, day 11
  Average Daily Food Consumption per Rat: 30.1 grams and 29.1 grams
[2]; males, day 12
  Average Daily Food Consumption per Rat: 26.5 grams and 23.4 grams
[2]; males, day 13
  Average Daily Food Consumption per Rat: 31.9 grams and 28.4 grams
[2]; males, day 14
  Average Daily Food Consumption per Rat: 32.7 grams and 26.4 grams
Hematology, day 15; female
  EOSINOPHIL: 0.0%
  HCT: 46.7%
  HGB: 16.0 g/dL
  LYMPHOCYTE: 86.3%
  MCH: 19.9 pg
  MCHC: 34.2%
  MCV: 58.7 fL
  MONOCYTE: 1.0%
  NEUTROPHIL SEG: 12.7%
  PLATELET COUNT: 1.363e+06 µL⁻¹
  RBC: 8e+06 µL⁻¹
  RE[…]: 5.1%
  WBC: 10200 µL⁻¹
Hematology, day 15; females, anatabine […], nicotine 0.75 mg/kg single i.v.
  mean corpuscular volume (MCV) and mean corpuscular hemoglobin (MCH): small, but statistically significant decreases
Hematology, day 15; male
  EOSINOPHIL: 0.0%
  HCT: 46.6%
  HGB: 15.8 g/dL
  LYMPHOCYTE: 85.8%
  MCH: 20.9 pg
  MCHC: 34.0%
  MCV: 61.5 fL
  MONOCYTE: 2.5%
  NEUTROPHIL SEG: 11.8%
  PLATELET COUNT: 1.3558e+06 µL⁻¹
  RBC: 7.6e+06 µL⁻¹
  RE[…]: 5.2%
  WBC: 11400 µL⁻¹
nAChR α3/β4
  potentiation: Neither nicotine nor anatabine potentiated the activity
nAChR α4/β2
  inhibition of receptor activity: inhibited receptor activity
nAChR α7
  agonist activity: showed agonist activity
